Measured values reported in patent publication US20230257398A1, “PYRIMIDINE-BASED TRICYCLIC COMPOUND AND USE THEREOF” (Chia Tai Tianqing Pharmaceutical Group Co., Ltd., priority 2020, published 2023).

Target: T1, sGC (Homo sapiens, UniProt Q02108+Q02153)
T1 construct: Preparation of LNCap Cells; endogenous in cells; host or cells: LNCaP cells (14th generation), no transfection described
T1 sequence (Q02153 1-619): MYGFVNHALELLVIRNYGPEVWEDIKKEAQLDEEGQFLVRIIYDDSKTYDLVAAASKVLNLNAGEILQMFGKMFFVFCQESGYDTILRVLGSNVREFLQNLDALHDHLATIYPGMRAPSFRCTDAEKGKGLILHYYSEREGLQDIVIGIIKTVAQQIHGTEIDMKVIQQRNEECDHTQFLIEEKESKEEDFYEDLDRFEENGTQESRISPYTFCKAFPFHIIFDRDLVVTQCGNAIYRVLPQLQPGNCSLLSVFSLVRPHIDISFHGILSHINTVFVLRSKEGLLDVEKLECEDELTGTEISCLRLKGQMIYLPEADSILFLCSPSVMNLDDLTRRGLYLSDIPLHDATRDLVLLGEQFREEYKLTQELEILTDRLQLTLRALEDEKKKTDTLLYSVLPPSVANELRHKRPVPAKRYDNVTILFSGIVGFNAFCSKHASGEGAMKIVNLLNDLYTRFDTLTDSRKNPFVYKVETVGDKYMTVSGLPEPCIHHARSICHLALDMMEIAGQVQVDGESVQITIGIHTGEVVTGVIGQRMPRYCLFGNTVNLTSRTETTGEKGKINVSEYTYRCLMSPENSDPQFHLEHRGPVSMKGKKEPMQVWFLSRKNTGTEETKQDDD
T1 sequence (Q02108 1-690): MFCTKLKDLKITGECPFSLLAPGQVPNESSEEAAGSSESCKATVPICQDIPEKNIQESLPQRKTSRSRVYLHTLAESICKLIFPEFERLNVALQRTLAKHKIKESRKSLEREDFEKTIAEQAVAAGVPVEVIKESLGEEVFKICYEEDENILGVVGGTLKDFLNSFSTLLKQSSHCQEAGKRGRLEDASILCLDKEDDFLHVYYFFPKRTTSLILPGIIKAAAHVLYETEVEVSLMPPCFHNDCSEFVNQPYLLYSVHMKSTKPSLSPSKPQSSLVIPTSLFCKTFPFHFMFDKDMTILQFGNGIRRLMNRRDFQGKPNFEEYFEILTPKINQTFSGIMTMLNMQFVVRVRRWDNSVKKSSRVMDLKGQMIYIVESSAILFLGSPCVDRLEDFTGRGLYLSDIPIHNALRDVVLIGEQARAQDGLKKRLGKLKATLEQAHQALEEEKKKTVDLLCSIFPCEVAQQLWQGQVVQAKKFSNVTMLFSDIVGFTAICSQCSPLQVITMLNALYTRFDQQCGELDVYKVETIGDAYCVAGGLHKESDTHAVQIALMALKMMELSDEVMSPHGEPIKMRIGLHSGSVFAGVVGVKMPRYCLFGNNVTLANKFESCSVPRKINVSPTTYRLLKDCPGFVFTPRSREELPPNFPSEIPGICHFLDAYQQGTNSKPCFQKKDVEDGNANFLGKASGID
Assay: lnCap cell-based cGMP expression assay (stimulating activity for sGC)
Settings: with DETA-NO, 37° C. 30 min, HTRF cGMP
Experimental: I. lnCap Cell-Based cGMP Expression Assay
1) Preparation of Solutions
10% BSA (Bovine Serum Albumin)
10 g of BSA was dissolved in 100 mL of double distilled water (ddH2O) to give 10% BSA.
5 mM DETA (Diethylenetriamine)-NO
10 mg of DETA-NO was weighed out and dissolved in 12.2 mL of double distilled water (ddH2O) to give 5 mM DETA-NO, which was aliquoted and cryopreserved in a freezer at −20° C.
a) To 1 mL of a lysis buffer was added 50 μL of cGMP-D2 (D2-labeled cyclic guanosine monophosphate), and the mixture was well mixed.
b) To 1 mL of a lysis buffer was added 50 μL of anti-cGMP cryptate (Eu^3+ cryptate-labeled anti-cyclic guanosine monophosphate antibody), and the mixture was well mixed.
(1) The compounds were diluted to 5 mM with DMSO. 10 μL of each of the compounds was transferred to a shallow well plate for Echo.
(2) The compounds were gradiently diluted with Echo. Each of the compounds was diluted to obtain 10 concentration gradients, and 50 nL of each of the concentration gradients was added to a 384 microwell plate.
3) Preparation of LNCap Cells
(1) LNCap medium: RPMI1640+10% fetal bovine serum+1% […].
(2) Phosphate buffered saline, pancreatin and the medium used in the process of cell passaging were pre-heated in a water bath at 37° C.
(3) The cells (the 14th generation) were taken out of the 37° C., 5% CO2 incubator, and the old medium was pipetted off the culture flask.
(4) 5 mL of phosphate buffered saline was pipetted into the culture flask to rinse the cells, and then the liquid was discarded.
(5) 3 mL of pancreatin was pipetted into the culture flask. After the culture flask was shaken, the liquid was discarded, and the culture flask was placed in the incubator.
(6) After about 2 min the culture flask was taken out. […] The cell suspension was transferred to a 50 mL centrifuge tube.
(7) 0.7 mL of the cell suspension was pipetted into a counter cup and the cells were counted on a ViCell XR. The remaining cells were centrifuged at 1000 rpm for 5 min, and the supernatant was removed.
(8) The cells were washed by adding 10 mL of the washing buffer and centrifuged at 1000 rpm for 5 min, and the supernatant was removed.
(9) The assay buffer was added to adjust the cell concentration to 1.25×10^6/mL. The cells were added to the microwell plate at 8 μL/well.
4) Formulation and Addition of DETA-NO
(1) 10 μL of 5 mM DETA-NO was added to 1240 μL of the assay buffer and to 1657 μL of the assay buffer to give 40 μM DETA-NO and 30 μM DETA-NO, respectively.
(2) DETA-NO was transferred to the 384 microwell plate at 2 μL/well using Bravo.
(3) The mixtures were centrifuged at 1500 rpm for 5 min. The microwell plate was incubated at 37° C. for 30 min.
5) Preparation of cGMP Standard Curve
(1) 1 mM of the cGMP stock solution was diluted to 10 μM with the assay buffer. Then 4-fold gradient dilution was performed to obtain 11 concentration gradients.
(2) The cGMP dilutions were added to the microwell plate at 10 μL/well.
6) Addition of Detection Reagents and Plate Reading
(1) cGMP-D2 was transferred to the 384 microwell plate at 5 μL/well using Bravo. The mixtures were centrifuged at 1500 rpm for 1 min.
(2) The anti-cGMP cryptate was transferred to the 384 microwell plate at 5 μL/well using Bravo. The mixtures were centrifuged at 1500 rpm for 1 min.
(3) The plate was incubated at room temperature for 1 h.
(4) 665/615 was read using envision.
(1) cGMP standard curve: a standard curve was generated using Graphpad prism based on the cGMP concentrations and 665/615 ratios.
(2) Conversion of HTRF (homogeneous time-resolved fluorescence) ratios (665/615) to cGMP concentrations: in Graphpad prism, the HTRF ratios (665/615) were copied into the ratio column of the cGMP standard curve, and the “Log inhibitor vs response-variable slope” analysis was run with “interpolate” selected to convert the HTRF ratios (665/615) to cGMP concentrations. […]

MEC: minimum effective concentration to stimulate cGMP production (three times greater than the basal value) in lnCap cells: 231.7 nM
Structure (SMILES): CCNC(=O)OC12CCOc3nc(-c4nn(Cc5ccccc5F)c5ncc(F)cc45)nc(c31)NC2=O (stereo not shown) [Compound 050]
